Measurements from US8716334B2, “Substituted cyclohexylidene-ethylidene-octahydro-indene compounds” (Ben Gurion University of the Negev Research and Development …, priority 2008, dated 2014).
Entries after “also recorded” stand apart in the source; their conditions may differ.

Legend:
HaCaT keratinocytes = test: Cellular entry into HaCaT keratinocytes by HPLC; format: in vitro ADME, human; settings: for entry into keratinocytes: HaCaT cultures, HPLC of external and internal fractions; for cell internalization normalized per cell: 0.5×10^6 to 9.7×10^6 cells, data not shown
Experimental: (§1) External and internal fractions of HaCaT cultures (0.5×10^6, 1×10^6, 3×10^6, 5×10^6 and 9.7×10^6 cells) were analyzed by HPLC.

[1] = system: HT-29 human colon cancer cells; test: In vivo anti-tumor activity, HT-29 tumors in nude mice; settings: for tumor size relative to controls at 30 days after cancer cell injection / size of tumors versus vehicle-treated control mice: HT-29 sc in nude mice; for tumor size relative to controls at 30 days after cancer cell injection: 2 μg/kg ip; for size of tumors versus vehicle-treated control mice: 2 μg/kg ip from day 20; for weight loss or observable adverse effects: nude mice, 2 μg/kg ip three times per week
Experimental: In vivo anti-tumor activity of the novel derivatives of calcipotriol: Experiments were carried out to determine the ability of BGP-13 and BGP-15 to inhibit the growth of human tumor cells in vivo. […] Nude mice received a subcutaneous (sc) injection of HT-29 human colon cancer cells. At various time intervals after the administration of the tumor cells, the mice received three times per week intraperitoneal injections of BGP-13 and BGP-15 at a dose of 2 μg/kg. […] In one experiment 12 nude mice, which received a s.c. injection of HT-29, were divided into three groups. Starting from day 20 after tumor injection, 2 groups of the mice received ip injections of BGP-13 and BGP-15 respectively. […] At 30 days after cancer cell injection, the tumors in the treated group were half the size of the tumors in controls (FIG. 14).

[2] = system: HaCaT immortalizes normal human skin keratinocytes; test: Neutral-Red viability assay in HaCaT cells; format: cell-based
Experimental: (§2) Cell culture: The following human cell lines (1) LNCaP—human prostate carcinoma cell line (2) MCF-7—human breast carcinoma cell line, and (3) GA—human melanoma cell line (3) HaCaT—immortalizes normal human skin keratinocytes were tested. Cells were inoculated in RPMI 1640 (LNCaP and GA) or Dulbecco modified eagle medium-DMEM (MCF-7 and HaCaT) supplemented with 10% heat inactivated fetal calf serum, 200 μM L-glutamine, 10 units/ml Penicillin and 10 μgr/ml Streptomycin. The cells were kept at 37° C. in a 5% CO2 humidified atmosphere.
(§3) The direct effect of the compound compared to free calcipotriene and vitamin D3 in the viability and proliferation level of cultured cells was assessed in vitro using cultured Cells. The cells were inoculated in 0.2 ml fresh medium. After 24 at 37° C. in a 5% CO2 humidified atmosphere, the medium was replaced with a fresh medium containing 0.5% ethanol and 30, 5, 1 and 0.1 μM test substance. Medium containing 0.5% ethanol without test compounds was used for the control cells. Cell growth and proliferation was assayed by Neutral-Red assay (evaluated by measuring the absorbance of the dye following 3 hours incubation, in 540 nm) at the stated times.

p21^WAF1 = test: Western blot of p21 expression in LNCaP cells; format: cell-based, human; settings: 100 nM, 48 hours
Experimental: Cells were incubated for 5 minutes at room temperature in 100 μl of 1% SDS lysis buffer. Samples were then collected into eppendorfs, incubated for 10 minutes at 100° C., and centrifuged at 14,000 rpm for 10 minutes. Supernatants were transferred into new tubes and pellets were discarded. Determination of protein concentration was conducted using the Bradford assay. […] protein of each sample was loaded on PVDF membranes and incubated with anti p21 antibody (Santa Cruz Biotechnology, Santa Cruz, Calif., U.S.A).

HaCaT cells = test: MTT and NR viability assays for HaCaT cells (FIG. 7); format: cell-based, human; parameters: dose or concentration left out as unconfirmed; settings: (for 24 hours)
Experimental: FIG. 7 is a bar graph showing the results of a MTT and NR viability assays for HaCaT cells treated with 30 µM (for 24 hours) of 1α,25(OH)2 vitamin D3, calcipotriol (CPT), and BGP-13.
Viability of HaCaT cells in the presence of three vitamin D3 derivatives, 1α,25(OH)2 D3 (calcitriol), and BGP-013 was studied by MTT assay.

[3] = Stability in the external medium; format: in vitro ADME; settings: relative to CPT
Experimental: as §1

HT-29, MCF-7, and LNCaP = test: Activity against cell lines of human origin; format: cell-based
[4] = system: MCF-7 human breast carcinoma cell line; test: Neutral-Red viability assay in MCF-7 cells; format: cell-based; settings: MCF-7, 30 μM, 24 hours
Experimental: as §2, §3

[5] = system: LNCaP human prostate carcinoma cell line; test: Neutral-Red viability assay in LNCaP cells; format: cell-based; settings: for antiproliferative effect (viability assay): 30 μM, 24 hours
Experimental: as §2, §3

LNCaP cells = test: MTT viability assay in LNCaP cells; format: cell-based, human; settings: 1 or 5 μmol/L, 3 to 6 days
Experimental: (§4) LNCaP and MCF-7 cells were plated in 96-well plates and treated with 1 or 5 μmol/L test substances for 3 to 6 days. Cell viability following treatments was assayed by MTT. All experiments were conducted at least twice, and weighted results from all experiments are shown. *p<0.005 of BGP-15 relative to vitamin D3, **p<0.001 of BGP-15 relative to vitamin D3 and to calcipotriene.
(§5) LNCaP and MCF-7 cell-lines are widely used models for human prostate and mammary carcinomas respectively. Following BGP-15 purification and structural elucidation (FIG. 12), the effect of calcipotriene and BGP-15 on the viability of both LNCaP and MCF-7 cells was tested in-vitro by using the MTT assay, and was compared with the effect obtained by vitamin D3 (calcitriol).

[6] = Calcium metabolic model in rats; format: in vivo; settings: 20 ng daily for six days
Experimental: The clinical use of vitamin D3 as an anti-cancer agent is limited by its toxicity and concerns the possible development of hypercalcemia or hypercalciuria in treated patients. The calcium levels in rat blood, and the total daily secretion of calcium in rat urine were evaluated following daily treatments of 20 ng of vitamin D3, calcipotriene or BGP-15 for six days as shown in FIG. 15.

[7] = CPT metabolite in rat skin
From the text: LC/MS analysis has confirmed that the metabolite peak appeared at BGP-13's retention time was indeed this derivative (FIG. 10). […] The formation of reduced levels of this metabolite is probably due to the poor penetration of calcipotriol into the skin. Therefore, intracellular BGP-13 is an […] product of the internalized CPT with reactive oxygen species (ROS) such as singlet oxygen. This metabolic pathway of calcipotriol may have a role in scavenging ROS and reducing inflammatory processes in cells and tissue.

MCF-7 cells = test: MTT viability assay in MCF-7 cells; format: cell-based, human; settings: MCF-7, 1 or 5 μmol/L, 3 to 6 days
Experimental: as §4, §5

[8] = Reaction with singlet oxygen (endoperoxide-naphthalene trapper); settings: room temperature, product detected by TLC, LC-MS
From the text: The trapper, endoperoxide-naphthalene, was converted into naphthalene and released exclusively singlet oxygen at room temperature (FIG. 11). Combining calcipotriol with the endoperoxide has created a new product that was first detected by TLC as BGP-13. LC-MS has confirmed that this indeed is the substance.

Row | SMILES | entry into keratinocytes (HaCaT keratinocytes) | cell internalization normalized per cell (HaCaT keratinocytes; HaCaT) | tumor size relative to controls at 30 days after cancer cell injection [1] | size of tumors versus vehicle-treated control mice [1] | weight loss or observable adverse effects [1] | p21 expression (p21^WAF1) | activity against cell lines of human origin (HT-29, MCF-7, and LNCaP) | antiproliferative effect (viability assay) [5] | cell survival (MTT) (LNCaP cells) | hypercalcemia (calcium levels in rat blood) [6] | hypercalciuria (total daily secretion of calcium in rat urine) [6] | cell survival (MTT) (MCF-7 cells) | further results
1 | C=C1/C(=C\C=C2/CCC[C@@]3(C)C2CC[C@@H]3C(C)C2C=C(C3CC3)OO2)C[C@@H](O)C[C@@H]1O (some centres unmarked) [Compound II, Calci-dioxole] | approximately 60 % of the applied substance | constant even at a high cell density | half the size | significantly smaller | did not cause either weight loss or any observable adverse effects | not mediated through increased p21 expression | active at least against three cell lines | much more potent antiproliferative effect on the LNCaP and MCF-7 cancer cells as compared to HaCaT cells; also recorded: significantly high efficacy; also recorded: much more potent antiproliferative effect on LNCaP and MCF-7 cancer cells than on HaCaT cells; also recorded: much more potent antiproliferative effect on LNCaP cells than calcipotriol alone | – | – | – | – | intracellular permeation as fraction of the total quantity momentarily present in the cell culture (HaCaT keratinocytes; HaCaT): enhanced intracellular permeation increased its stability by preventing degradation in the medium; selectivity for carcinogenic versus non-carcinogenic cells ([2]; HaCaT compared with cancer cell lines): more selective for carcinogenic cells; also recorded: might have a less potent effect on non-carcinogenic cells than on carcinogenic cells; potency of treatment (viability assay) ([2]; HaCaT, 5 μM and 1 μM, 6 days): less potent than treatments with calcitriol and calcipotriol; inhibition of proliferation of keratinocytes (MTT assay) (HaCaT cells): inhibited the proliferation of the keratinocytes at the same rate and extent as CPT or calcitriol; stability in the medium [3]: significantly less stable in the medium relative to CPT; antiproliferative effect (viability assay) [4]: much more potent antiproliferative effect on the LNCaP and MCF-7 cancer cells as compared to HaCaT cells; also recorded: much more potent antiproliferative effect on LNCaP and MCF-7 cancer cells than on HaCaT cells; mortality (viability assay) ([5]; 5 μM, 6 days): higher mortality than cells exposed to calcipotriol alone; antiproliferative effect (viability assay) ([5]; listed as BGP-13): much more potent antiproliferative effect on LNCaP cells than calcipotriol alone
2 | C=C1/C(=C\C=C2/CCC[C@]3(C)[C@@H]([C@H](C)/C=C/[C@@H](O)C4CC4)CC[C@@H]23)C[C@@H](O)C[C@@H]1O [calcipotriol, reference compound] | comparable | constant even at a high cell density | – | – | – | increased p21 expression | – | less efficacious; also recorded: relatively lower anticancer effect | reduce prostate and breast cancer cells survival | do not generate hypercalcemia | do not generate hypercalcemia or hypercalciuria | reduce prostate and breast cancer cells survival | metabolite BGP-13 in rat skin [7]: found at low levels; action towards singlet oxygen [8]: antioxidant/quencher of singlet oxygen
3 | C=C1/C(=C\C=C2/CCC[C@]3(C)[C@@H]([C@H](C)CCCC(C)(C)O)CC[C@@H]23)C[C@@H](O)C[C@@H]1O [calcitriol] | – | – | – | – | – | increased p21 expression | – | less efficacious; also recorded: relatively lower anticancer effect | reduce prostate and breast cancer cells survival | – | – | reduce prostate and breast cancer cells survival | –
4 | C=C1/C(=C\C=C2/CCC[C@@]3(C)C2CC[C@@H]3C(C)/C=C/C(Cl)C2CC2)C[C@@H](O)C[C@@H]1O (some centres unmarked) [Calci-Cl] | – | – | half the size | significantly smaller | did not cause either weight loss or any observable adverse effects | – | active at least against three cell lines | – | reduce prostate and breast cancer cells survival | do not generate hypercalcemia | do not generate hypercalcemia or hypercalciuria | reduce prostate and breast cancer cells survival | –
